Measurements published in patent US20160030407A1, “Method of Treating Inflammatory Lung Disease” (priority 2010, published 2016).
“And” between values parts separate entries of the source, which are not always exact repeats. Equal entries are not always repeated.

Assays:
[1] = Single i.v. dose toxicity: body weights and food consumption; format: in vivo, Sprague-Dawley rats; conditions: for Mean food consumption/day: single i.v. 0.1 mg/kg, 14 days, 0.1 mg/kg; for Mean weight increase by day 14: single i.v. 0.75 mg/kg anatabine
Procedure: (§1) Body weight and food consumption was measured daily for 14 days. On day 15, urine was collected on all surviving animals. The animals were euthanized and bled via cardiac puncture, and blood was collected for analysis. Tissues were collected, weighed, evaluated for gross abnormalities, and stored in 10% neutral-buffered formalin.
All animals were observed daily.

[2] = Single i.v. dose toxicity: urinalysis; format: in vivo, Sprague-Dawley rats; conditions: for Urinalysis KETONES / Urinalysis BILIRUBIN / Urinalysis BLOOD / Urinalysis PROTEIN / Urinalysis pH / Urinalysis CLARITY / Urinalysis COLOR / Urinalysis GLUCOSE / Urinalysis UROBILINOGEN / Urinalysis VOLUME: individual animals M and F
From the text: (§2) On day 15, urine was collected on all surviving animals for urinalysis. The animals were euthanized and bled via cardiac puncture. Blood was collected for hematology, clinical chemistry, and coagulation analysis. Tissues were collected, weighed, and stored in 10% neutral-buffered formalin for possible future analysis.

[3] = Single i.v. dose toxicity: coagulation (aPTT, PT); format: in vivo, Sprague-Dawley rats; conditions: for ACTIVE PARTIAL THROMBOPLASTIN TIME: Anatabine 0.1 mg/kg single i.v. dose
From the text: as §2

[4] = Single i.v. dose toxicity: necropsy observations and organ weights; format: in vivo, Sprague-Dawley rats
Procedure: as §1, §2

[5] = Physical signs after single i.v. dose (Example 3); format: in vivo, Sprague-Dawley rats; conditions: rat, nicotine 0.4 mg/kg, anatabine 0.10, 0.75, 1.0 mg/kg
Procedure: Four aliquots of each dose level formulation were collected and stored at −80° C. The test compound, corresponding dose level, number of animals, and sample collection times for Phase I of the study are shown in Table 3. The test compound, corresponding dose level, number of animals, and sample collection times for Phase II of the study are shown in Table 4. The physical signs of each animal were monitored following administration of the test compound.

nAChR α7 = target: T1, nAChR α7 (Homo sapiens, UniProt P36544); test: nAChR α7 channel agonist assay (FLIPR); format: cell-based; conditions: in presence of PNU-120596; maximal stimulation not achieved
T1 construct: host or cells: CHO cells coexpressing RIC-3
Procedure: Briefly, cells were incubated with […] dye for 30 min at 37° C.
Therefore, the assay of agonist activity for either Ach or for the test articles was conducted in the presence of the positive allosteric modulator.

[6] = Anatabine dose 0.1 mg/kg, 0.1 mg/kg, female rats
[7] = Anatabine dose 0.1 mg/kg, 0.1 mg/kg, male rats
[8] = Anatabine dose 0.1 mg/kg, female rats
[9] = Anatabine dose 0.1 mg/kg, male rats
[10] = Anatabine dose 0.75 mg/kg, 0.75 mg/kg, female rats
[11] = Anatabine dose 0.75 mg/kg, 0.75 mg/kg, male rats
[12] = Anatabine dose 0.75 mg/kg, female rats
[13] = Anatabine dose 0.75 mg/kg, male rats
[14] = Group B: Anatabine 0.1 mg/kg (Females), individual animals
[15] = Group B: Anatabine 0.1 mg/kg (Males), individual animals
[16] = Group C: Anatabine 0.75 mg/kg (Females), individual animals
[17] = Group C: Anatabine 0.75 mg/kg (Males), individual animals
[18] = female animals, Anatabine 0.1 mg/kg, n = 5
[19] = female animals, Anatabine 0.75 mg/kg, n = 5
[20] = male rats, single i.v. 0.1 mg/kg, day 15
[21] = male rats, single i.v. 0.75 mg/kg anatabine, day 15

T1 sequence (P36544 23-502): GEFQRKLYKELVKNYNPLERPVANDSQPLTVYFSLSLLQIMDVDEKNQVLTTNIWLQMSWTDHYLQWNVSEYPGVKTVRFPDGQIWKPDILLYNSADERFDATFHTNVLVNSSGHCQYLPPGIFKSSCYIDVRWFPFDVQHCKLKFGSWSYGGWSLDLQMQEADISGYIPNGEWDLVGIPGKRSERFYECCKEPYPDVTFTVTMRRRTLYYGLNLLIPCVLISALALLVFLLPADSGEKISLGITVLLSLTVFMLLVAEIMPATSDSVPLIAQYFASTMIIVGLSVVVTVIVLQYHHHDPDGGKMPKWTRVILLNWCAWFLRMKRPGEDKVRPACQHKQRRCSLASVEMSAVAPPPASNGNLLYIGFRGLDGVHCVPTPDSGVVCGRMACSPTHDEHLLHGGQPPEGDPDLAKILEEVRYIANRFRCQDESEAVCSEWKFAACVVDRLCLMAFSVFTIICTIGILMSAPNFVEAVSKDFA

C1=CCC(c2cccnc2)NC1 (racemic) [Anatabine, 1,2,3,6-tetrahydro-[2,3′]bipyridinyl]
Mean food consumption/day ([1]; male rats): 31.0 g | Mean food consumption/day ([1]; male rats, listed as anatabine): statistically higher | Mean weight increase by day 14 ([1]; female rats): 43.1 g | Mean weight increase by day 14 ([1]; male rats): 111.6 g | Urinalysis KETONES ([2]; Anatabine dose 0.1 mg/kg, 0.1 mg/kg): NEGATIVE | Urinalysis BILIRUBIN [2, 6]: NEGATIVE | Urinalysis BLOOD [2, 6]: NEG- (3×) and TRACE | Urinalysis PROTEIN [2, 6]: NEG- | Urinalysis pH [2, 6]: 7.5 (2×) and 7 and 8 | Urinalysis BILIRUBIN [2, 7]: NEGATIVE | Urinalysis BLOOD [2, 7]: TRACE (2×) and NEG- | Urinalysis PROTEIN [2, 7]: TRACE (3×) and NEG- | Urinalysis pH [2, 7]: 8.5 and 7.5 (2×) and 7 | Urinalysis CLARITY [2, 8]: HAZY | Urinalysis COLOR [2, 8]: YELLOW | Urinalysis GLUCOSE [2, 8]: NEGATIVE | Urinalysis UROBILINOGEN [2, 8]: NORMAL | Urinalysis VOLUME [2, 8]: <0.5 mL | Urinalysis CLARITY [2, 9]: HAZY | Urinalysis COLOR [2, 9]: YELLOW | Urinalysis GLUCOSE [2, 9]: NEGATIVE | Urinalysis UROBILINOGEN [2, 9]: NORMAL | Urinalysis VOLUME [2, 9]: <0.5 mL | Urinalysis CLARITY ([2]; Anatabine dose 0.75 mg/kg): HAZY | Urinalysis COLOR ([2]; Anatabine dose 0.75 mg/kg): YELLOW | Urinalysis VOLUME ([2]; Anatabine dose 0.75 mg/kg): <0.5 mL | Urinalysis PROTEIN ([2]; Anatabine dose 0.75 mg/kg, 0.75 mg/kg): TRACE | Urinalysis BILIRUBIN [2, 10]: NEGATIVE | Urinalysis BLOOD [2, 10]: TRACE and NEG- | Urinalysis KETONES [2, 10]: NEGATIVE | Urinalysis pH [2, 10]: 7.5 and 6 and 8 (2×) | Urinalysis BILIRUBIN [2, 11]: NEGATIVE | Urinalysis BLOOD [2, 11]: TRACE and NEG- (3×) | Urinalysis KETONES [2, 11]: NEGATIVE | Urinalysis pH [2, 11]: 7 | Urinalysis GLUCOSE [2, 12]: NEGATIVE | Urinalysis UROBILINOGEN [2, 12]: NORMAL | Urinalysis GLUCOSE [2, 13]: NEGATIVE | Urinalysis UROBILINOGEN [2, 13]: NORMAL | urinalysis parameters vs controls ([2]; rat, day 15 after single i.v. dose): no notable differences in any of the urinalysis parameters | ACTIVE PARTIAL THROMBOPLASTIN TIME ([3]; female rats, individual animals B6-B10): 26 s | ACTIVE PARTIAL THROMBOPLASTIN TIME ([3]; male rats, individual animals B1-B5): 32 s | aPTT and PT vs vehicle control ([3]; rat, each anatabine treatment group): no significant differences in aPTT or PT | Tissue Collection Weights: Heart [4, 14]: 0.95 g | Tissue Collection Weights: Ovaries/uterus [4, 14]: 0.96 g and 0.84 g and 0.70 g | Tissue Collection Weights: Small intestine [4, 14]: 0.87 g and 0.71 g and 0.55 g and 0.49 g and 0.63 g | Tissue Collection Weights: Spleen [4, 14]: 0.79 g and 0.62 g and 0.51 g and 0.67 g and 0.65 g | Tissue Collection Weights: Thymus [4, 14]: 0.68 g and 0.59 g and 0.49 g and 0.71 g and 0.73 g | Tissue Collection Weights: Heart [4, 15]: 1.60 g | Tissue Collection Weights: Kidneys [4, 15]: 3.70 g | Tissue Collection Weights: Prostate [4, 15]: 0.72 g and 0.49 g and 0.73 g and 0.53 g and 0.48 g | Tissue Collection Weights: Small intestine [4, 15]: 0.61 g and 0.96 g and 0.88 g and 0.50 g and 0.35 g | Tissue Collection Weights: Spleen [4, 15]: 0.91 g and 0.66 g and 0.82 g and 0.93 g and 0.76 g | Tissue Collection Weights: Thymus [4, 15]: 0.74 g (2×) and 0.76 g and 0.71 g and 0.81 g | Tissue Collection Weights: Brain [4, 16]: 1.93 g | Tissue Collection Weights: Heart [4, 16]: 0.99 g | Tissue Collection Weights: Kidneys [4, 16]: 2.20 g | Tissue Collection Weights: Lungs [4, 16]: 1.30 g | Tissue Collection Weights: Ovaries/uterus [4, 16]: 0.81 g and 1.50 g and 0.72 g | Tissue Collection Weights: Small intestine [4, 16]: 0.72 g and 0.37 g and 0.85 g and 0.47 g | Tissue Collection Weights: Spleen [4, 16]: 0.70 g and 0.65 g (2×) and 0.51 g and 0.49 g | Tissue Collection Weights: Thymus [4, 16]: 0.56 g and 0.53 g and 0.63 g and 0.52 g and 0.54 g | Tissue Collection Weights: Brain [4, 17]: 2.00 g | Tissue Collection Weights: Prostate [4, 17]: 0.49 g (2×) and 0.65 g and 0.46 g and 0.45 g | Tissue Collection Weights: Small intestine [4, 17]: 0.54 g and 0.56 g and 0.41 g and 0.47 g | Tissue Collection Weights: Spleen [4, 17]: 0.71 g and 0.63 g and 0.79 g and 0.93 g and 0.64 g | Tissue Collection Weights: Testes [4, 17]: 2.70 g | Tissue Collection Weights: Thymus [4, 17]: 0.52 g and 0.67 g and 0.69 g and 0.47 g | Organ Weight Brain, Mean [4, 18]: 1.86 g | Organ Weight Heart, Mean [4, 18]: 1.13 g | Organ Weight Liver, Mean [4, 18]: 10.84 g | Organ Weight Lungs, Mean [4, 18]: 1.41 g | Organ Weight Ovaries/uteris, Mean [4, 18]: 1.14 g | Organ Weight, Small intestine (mean) [4, 18]: 0.65 g | Organ Weight, Spleen (mean) [4, 18]: 0.65 g | Organ Weight, Thymus (mean) [4, 18]: 0.64 g | Organ Weight Brain, Mean [4, 19]: 1.90 g | Organ Weight Heart, Mean [4, 19]: 1.11 g | Organ Weight Kidneys, Mean [4, 19]: 2.30 g | Organ Weight Liver, Mean [4, 19]: 10.42 g | Organ Weight Lungs, Mean [4, 19]: 1.45 g | Organ Weight Ovaries/uteris, Mean [4, 19]: 1.58 g | Organ Weight, Small intestine (mean) [4, 19]: 0.75 g | Organ Weight, Spleen (mean) [4, 19]: 0.60 g | Organ Weight, Thymus (mean) [4, 19]: 0.56 g | Organ Weight, Prostate (mean) [4, 20]: 0.59 g | Organ Weight, Small intestine (mean) [4, 20]: 0.66 g | Organ Weight, Spleen (mean) [4, 20]: 0.82 g | Organ Weight, Thymus (mean) [4, 20]: 0.75 g | Organ Weight, Prostate (mean) [4, 21]: 0.51 g | Organ Weight, Small intestine (mean) [4, 21]: 0.68 g | Organ Weight, Spleen (mean) [4, 21]: 0.74 g | Organ Weight, Thymus (mean) [4, 21]: 0.67 g | physical signs post dose [5]: no obvious adverse signs were observed | agonist activity (nAChR α7): showed agonist activity
